Measurements taken from US11478519B2, “Nutritional supplement containing iron” (CURA GLOBAL HEALTH (BVI) LIMITED, priority 2012, dated 2022).

Tested on: Aspergillus oryzae
Method: The dose of iron was calculated as a concentration of iron elements rather than the concentration of salt; to enable comparison with the iron content in the fungal biomass. All fungal samples were thoroughly washed with deionizer water prior to testing by the ICP-OES method.
Other inorganic minerals such as selenium and zinc have been used to produce selenium or zinc enriched yeast, but the use of filamentous fungi has not been reported. […] A similar process (FIG. 2) was used for growing Aspergillus oryzae fortified with either sodium selenite or zinc sulfate. The dose of either inorganic salt was calculated as a concentration of the elements rather than the concentration of salt to enable comparison with the mineral content in the fungal biomass.

| Structure (SMILES) | effect on fungal yield | toxicity to Aspergillus oryzae (Fe3+ 1-200 mg/L in corn-ethanol Syrup) |
| --- | --- | --- |
| O=S(=O)([O-])[O-].[Zn+2] [Zinc, zinc sulfate] | increased fungal yield | – |
| O=S(=O)([O-])[O-].O=S(=O)([O-])[O-].O=S(=O)([O-])[O-].[Fe+3].[Fe+3] [ferric sulfate, Ferric sulfate (Fe2(SO4)3.2H2O)] | – | not toxic |
